Results reported in ChEMBL document CHEMBL1201862, “PubChem BioAssay data set” (2004).
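Results reflect a 48-hour exposure of cells in 96-well plates to compound at five concentrations. Abbreviation: GI50, concentration required for 50% inhibition of growth.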 Active and inactive are the calls of the source. Cut-off read from the data, not from the text of the source: active = GI50 up to about 1.1 µM and inactive = higher.

Tests used:
Experiment in all cases: growth of human tumour cells (NCI), 48 h
786-0 = system: 786-0
ACHN = system: ACHN
EKVX = system: EKVX
HCT-116 = system: HCT-116
HOP-62 = system: HOP-62
M14 = system: M14
MDA-MB-231 = system: MDA-MB-231
Malme-3M = system: Malme-3M
NCI-H460 = system: NCI-H460
SN12C = system: SN12C
SNB-75 = system: SNB-75
SW-620 = system: SW-620
UACC-257 = system: UACC-257
UACC-62 = system: UACC-62
LOX IMVI = system: LOX IMVI
MOLT-4 = system: MOLT-4
OVCAR-3 = system: OVCAR-3
OVCAR-8 = system: OVCAR-8

Measured: GI50

NCCC(=O)N[C@H](Cc1cc(O)c(O)c(SCC(NC(=O)CC[C@H](N)C(=O)O)C(=O)NCC(=O)O)c1)C(=O)O (stereo partly specified)
inactive: 786-0 > 50 µM | ACHN > 50 µM | EKVX > 50 µM | HCT-116 > 50 µM | HOP-62 > 50 µM | M14 > 50 µM | MDA-MB-231 > 50 µM | Malme-3M > 50 µM | NCI-H460 > 50 µM | SN12C > 50 µM | SNB-75 > 50 µM | SW-620 > 50 µM | UACC-257 > 50 µM | UACC-62 > 50 µM

COc1ccc(Cn2c(C)nc3c2C(=O)c2ccccc2C3=O)cc1
inactive: 786-0 5.4 µM | ACHN 10.3 µM | EKVX 13.8 µM | HCT-116 3.74 µM | HOP-62 11.6 µM | LOX IMVI 2.52 µM | M14 11.6 µM | MOLT-4 2.59 µM | Malme-3M 9.46 µM | NCI-H460 2.38 µM | OVCAR-3 9.84 µM | OVCAR-8 7.01 µM | SN12C 13.9 µM | SNB-75 11.2 µM | SW-620 8.07 µM | UACC-257 10.4 µM | UACC-62 4.58 µM

COc1cc(/C=C2\CCC(C)C3=C2NC(=S)NC3c2cc(OC)c(OC)c(OC)c2)cc(OC)c1OC (stereo unspecified)
inactive: 786-0 83.9 µM | ACHN 92.7 µM | EKVX 58.1 µM | HCT-116 49 µM | HOP-62 70.6 µM | LOX IMVI 53.2 µM | M14 60.3 µM | MDA-MB-231 34.5 µM | MOLT-4 24 µM | OVCAR-8 54 µM | SN12C 68.4 µM | SNB-75 25.6 µM | SW-620 96.2 µM | UACC-257 53.8 µM | UACC-62 40 µM

CC(=S)NNC(=O)c1ccncc1
inactive: 786-0 > 100 µM | ACHN > 100 µM | EKVX > 100 µM | HCT-116 > 100 µM | HOP-62 > 100 µM | LOX IMVI > 100 µM | M14 > 100 µM | MOLT-4 > 100 µM | Malme-3M > 100 µM | NCI-H460 > 100 µM | OVCAR-3 > 100 µM | OVCAR-8 > 100 µM | SN12C > 100 µM | SNB-75 > 100 µM | SW-620 > 100 µM | UACC-257 > 100 µM | UACC-62 > 100 µM

NC(Cc1ccc(B(O)O)cc1)C(=O)NC(CO)CO (stereo unspecified)
inactive: 786-0 > 100 µM | ACHN > 100 µM | EKVX > 100 µM | HCT-116 > 100 µM | HOP-62 > 100 µM | LOX IMVI > 100 µM | M14 > 100 µM | MDA-MB-231 > 100 µM | MOLT-4 > 100 µM | Malme-3M > 100 µM | NCI-H460 > 100 µM | OVCAR-3 > 100 µM | OVCAR-8 > 100 µM | SN12C > 100 µM | SNB-75 > 100 µM | SW-620 > 100 µM | UACC-257 > 100 µM | UACC-62 > 100 µM
